“Also recorded” adds a separate entry of the source.
Legend:
AQP5 = target: T1, AQP5 (Rattus norvegicus, UniProt P47864); test: Xenopus oocyte swelling assay, AQP5-expressing oocytes treated with HgCl2 / β-mercaptoethanol; type: cell-based; settings: for effect of HgCl2 on Pf of oocytes expressing AQP5: 1 mM HgCl2, 5 min.
T1 construct: expressed in transfected cells; host or cells: Xenopus oocytes (defolliculated, stage V-VI) injected with cRNA
Experimental: Functional expression in Oocytes--A 1-kb BamHI fragment containing the 5' untranslated sequence and the entire open reading frame of the salivary cDNA was blunt-end-ligated into the BglII site of the Xenopus expression construct pXβG, which contains the HindIII-Pst insert of pSP64T in pBS II KS (Preston et al., 1992, Science, 256:385-387). Capped cRNA was synthesized in vitro after digestion with Xbal (Preston et al., 1993). Defolliculated stage V-VI Xenopus oocytes were injected with 50 nl of water or up to 5 ng of sample cRNAs and incubated for 3 days at 18° C. in 200 mosM modified Barth's buffer. The oocytes were transferred to 70 mosM modified Barth's buffer at 21° C.; oocyte swelling was monitored by videomicroscopy, and the coefficient of osmotic water permeability (Pf) was determined (Preston et al., 1992, 1993). Uptake of [^14 C]urea or [^14 C]glycerol was measured by incubating oocytes in 200 mosM Barth's buffer for 10-20 min at 21° C. followed by washing and SDS solubilization. No increase in ion conductance was found when control oocytes were compared to RNA-injected oocytes by two electrode voltage clamps (Preston et al, 1992).
Shown are the mean values and standard deviations of 4-5 oocytes receiving no further treatment (stippled bars), oocytes incubated for 5 min. in 1 mM HgCl2 (black bars), or oocytes incubated for 5 min. in 1 mM HgCl2 followed by 30 min. in 5 mM β-mercaptoethanol (open bars). Similar to oocytes injected with AQP1 cRNA, injection of oocytes with the salivary cRNA increased the Pf by approximately 20-fold (FIG. 15). Therefore, the salivary protein qualifies as the 5th mammalian member of the Aquaporin family of water channels (Agre et al., 1993b, Am. J. Physiol., 265:F461), and the gene has been designated Aquaporin-5 (symbol AQP5) by the Genome Data Base.

CHIP28 = target: T2, CHIP28 (Homo sapiens, UniProt P29972); test: Stopped-flow water flux (Pf) in CHIP28 proteoliposomes, effect of mercurial reagents; type: biochemical
T2 construct: was comprised of AQP1 (the 28-kDa protein itself and the 35-60-kDa glycosylated protein); from tissue; host or cells: human erythrocytes (blood-bank units; small-scale purifications from freshly drawn whole blood)
T2 sequence (P29972 2-269 limits assumed): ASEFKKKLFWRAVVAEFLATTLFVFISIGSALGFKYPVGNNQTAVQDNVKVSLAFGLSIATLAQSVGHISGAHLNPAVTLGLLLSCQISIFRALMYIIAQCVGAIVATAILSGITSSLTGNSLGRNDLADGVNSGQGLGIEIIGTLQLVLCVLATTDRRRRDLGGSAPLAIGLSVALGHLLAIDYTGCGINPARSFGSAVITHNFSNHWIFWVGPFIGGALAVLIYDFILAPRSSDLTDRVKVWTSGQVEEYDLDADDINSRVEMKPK
Experimental: Purified AQP1 was stored overnight at 0° C. or frozen for several days at -80° C. prior to reconstitution. Reconstitution into proteoliposomes was carried out in a final volume of 1 ml containing 60-90 μg of purified AQP 1 protein in chromatography buffer, 9 mg of bath-sonicated E. coli phospholipid, 1.25% (w/v) octyl glucoside, and 50 mM Tris-HCl (pH 7.5). The mixture was briefly blended on a vortex mixer and incubated for 20 minutes on ice. Proteoliposomes (or liposomes prepared without protein) were formed at room temperature by rapidly injecting the mixture into 25 ml of buffer A [50 mM MOPS, pH 7.5, 150 mM N-methyl-D-glucamine (NMDG) chloride also containing 10-15 mM carboxyfluorescein, 1 mM dithiothreitol, and 0.5 mM PMSF]. For the measurement of proton permeability, proteoliposomes and liposomes were loaded with buffer B (5 mM MOPS, pH 7.5, 150 mM KCl, 0.5 mM carboxyfluorescein, 1 mM dithiothreitol, and 0.5 mM PMSF). The suspension was incubated for 20 minutes at room temperature. Proteoliposomes or liposomes were collected by centrifugation for 1 hour at 123000×g in a Beckman Type 42.1 rotor at 4° C. The pellet was resuspended in 8 ml of buffer A or B and then centrifuged for 1 hour at 152000×g in a Beckman Type 50 Ti rotor. Proteoliposomes or liposomes were resuspended in 300 μl of buffer A or B and stored at 4° C. for 16-24 hours. Typically 50% (54±6%, n=5) of the AQP1 protein and 70% of the phospholipid were recovered in proteoliposomes. The lipid to protein ratio was in the range of 120:1 to 219:1. These proteoliposomes have internal volumes of 1 μl/mg of phospholipid (Ambudkar and Maloney, 1986, J. Biol. Chem. 261:10079-10086). Protein and phospholipid were measured as described by Ambudkar & Maloney (J. Biol. Chem., 1986, 261:10079-10086).
Permeability measurements. Membrane permeability measurements (Pf) were measured by exposing AQP1 proteoliposomes or control liposomes to an osmotic gradient by rapid mixing with an equal volume of another solution containing buffer A plus sufficient sucrose to increase osmolality in the mixed solutions to a value 120% of that in the original solution. This was performed with a stopped-flow fluorometer (SF.17MV, Applied Photophysics, Leatherhead, U.K.) with a measured dead time of 0.7 ms. The excitation wavelength was set at 490±1.5 nm using a 150-W mercury-xenon arc lamp and monochromator (.function.3.4 grating monochromator, both from Applied Photophysics); the emission wavelength was >515 nm using a cut-on filter (Oriel Corp., Stratford, Conn.). Extravesicular carboxyfluorescein fluorescence was completely quenched using anti-fluorescein antibody (Harris et al., 1990, Am. J. Physiol. 259:F366-F371).
Within the range of osmolalities used in these experiments, the vesicles acted as perfect osmometers, and relative volume (absolute volume divided by initial volume) was linearly related to relative fluorescence (absolute fluorescence divided by initial fluorescence). The data obtained from 8 to 16 determinations was averaged and fit to single-exponential curves using 5 software provided by Applied Photophysics (Zeidel et al., 1992, Biochemistry 31:589-596). The fitting parameters were then used to determine Pf by first applying the linear conversion from relative fluorescence to relative volume and then iteratively solving the water permeability equation using MathCAD software (MathSoft, Cambridge, Mass.):
dV(t)/dt=(Pf)(SAV)(MVW)[(Cin /V(t))-Cout ] (1)
where V(t) is relative intravesicular volume as a function of time, Pf is osmotic water permeability in centimeters per second, SAV is the vesicle surface area to volume ratio, MVW is the molar volume of water (18 cm^3 /mol), and Cin and Cout are the initial concentrations of total solute inside and outside the vesicle, respectively (Zeidel et al., 1992, Biochemistry 31:589-596).
Effect of mercural reagents.

T1 sequence (P47864 whole entry): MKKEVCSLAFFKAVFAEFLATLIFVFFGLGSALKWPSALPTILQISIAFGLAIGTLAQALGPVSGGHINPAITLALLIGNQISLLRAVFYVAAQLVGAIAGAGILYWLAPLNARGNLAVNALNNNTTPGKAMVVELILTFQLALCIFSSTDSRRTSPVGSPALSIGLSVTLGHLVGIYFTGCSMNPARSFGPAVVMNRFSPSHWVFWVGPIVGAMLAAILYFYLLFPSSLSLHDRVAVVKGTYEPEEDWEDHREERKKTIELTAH

Compound | Pf of AQP5 oocytes after HgCl2, effect of β-mercaptoethanol (AQP5; 5 mM β-mercaptoethanol 30 min. after 1 mM HgCl2) | reversal of inhibition by both mercurial reagents (CHIP28; β-mercaptoethanol 5 mM after pCMBS or HgCl2) | effect of HgCl2 on Pf of oocytes expressing AQP5 (AQP5) | effect of HgCl2 on Pf of oocytes expressing AQP5 (AQP5; listed as Hg Cl2) | time to complete inhibition of Pf (CHIP28; 1 mM, 37° C.) [min] | Pf in CHIP28 proteoliposomes after mercurial (CHIP28; 1 mM, 37° C. (FIG. 12: pCMBS 25 minutes, HgCl2 3 minutes)) [cm/s]
OCCS [β-mercaptoethanol] | restored | completely reversed | – | – | – | –
[Cl][Hg][Cl] [HgCl2] | – | – | comparable reduction in Pf; also recorded: reversibly inhibited | reversibly inhibited | ≤ 5 | 0.007±0.003

Source: patent US5858702A, “Isolation, cloning and expression of transmembrane water channel Aquaporin 5 (AQP5)” (The Johns Hopkins University, priority 1995, dated 1999)
